{
  "source": "patent US7297759B2",
  "about": "“Peptides for increasing transfection efficiency” (Welgene, Inc., priority 2002, dated 2007)",
  "key": {"HeLa cells": {"system": "HeLa cells", "assay": "Luciferase transfection efficiency of triple complex in HeLa cells", "type": "cell-based", "conditions": "for luciferase activity for various peptides: DNA:peptide:DP liposomes 1:4:4 (w/w/w), compared to Tat and Sc-Tat control peptides, FIG. 9A", "procedure": "In order to test transfection efficiency, the TatC peptide was precomplexed with the pcDNA3-luciferase vector DNA in 50 ul OPTI-MEM medium and was incubated for 5 minutes at room temperature. The DP liposomes was prepared in a 50 ul OPTI-MEM medium and added to the preformed complex of the TatC peptide and pcDNA3-luciferase vector DNA. The ratio of each component in the triple complex of the TatC peptide/DNA/DP liposomes was adjusted to 3:1:5 respectively. The triple complex of TatC peptide/DNA/DP liposomes was incubated for 10 minutes at room temperature and used for transfection into cells. After 5 hr incubation, 300 ul/well of the OPTI-MEM medium containing 20% Fetal Bovine Serum (FBS) was added into each transfection well. Further incubation for 16 hours was carried out before measuring transfection efficiency in luciferase activity using a luciferase assay kit (Promega, USA). To check luciferase activity of the pcDNA3-luciferase vector DNA, the following procedure was adopted. Cells were washed with PBS buffer (without Mg^2+ or Ca^2+) and lysed in 100 μl/well of 1×CCLR solution (Cell culture Lysis Reagent, 25 mM Tris-phosphate [pH 7.8], 2 mM DTT, 2 mM 1,2-diaminocyclohexane-N,N,N′,N′-tetraacetic acid, 10% glycerol, 1% Triton X-100). Cell lysates was centrifuged at 12,000×g for 1 minute and 50 ul supernatant was carefully harvested without disturbing the cell pellet. The cell lysates then mixed with 20 μl Luciferase Assay reagent. Luciferase activity was tested using a luminometer (Berthold detection systems, Sirius, Germany). As a negative control, the DP liposomes alone. […]\nTo examine transfection efficiency in the presence or absence of serum, the TatC/DNA(pcDNA3-luc)/DP liposomes triple complex of the present invention was transfected into HeLa and K562 cells in a medium with or without 10% FBS (FIG. 13A and B). A complex of DNA and liposomes was used as a negative control."}, "cells": {"system": "cells", "assay": "Luciferase transfection efficiency of TatC peptide/DNA/cationic liposome triple complex (FIG. 1, FIG. 2)", "type": "cell-based", "procedure": "In order to test transfection efficiency, the TatC peptide was precomplexed with the pcDNA3-luciferase vector DNA in 50 ul OPTI-MEM medium and was incubated for 5 minutes at room temperature. The DP liposomes was prepared in a 50 ul OPTI-MEM medium and added to the preformed complex of the TatC peptide and pcDNA3-luciferase vector DNA. The ratio of each component in the triple complex of the TatC peptide/DNA/DP liposomes was adjusted to 3:1:5 respectively. The triple complex of TatC peptide/DNA/DP liposomes was incubated for 10 minutes at room temperature and used for transfection into cells. After 5 hr incubation, 300 ul/well of the OPTI-MEM medium containing 20% Fetal Bovine Serum (FBS) was added into each transfection well. Further incubation for 16 hours was carried out before measuring transfection efficiency in luciferase activity using a luciferase assay kit (Promega, USA). To check luciferase activity of the pcDNA3-luciferase vector DNA, the following procedure was adopted. Cells were washed with PBS buffer (without Mg^2+ or Ca^2+) and lysed in 100 μl/well of 1×CCLR solution (Cell culture Lysis Reagent, 25 mM Tris-phosphate [pH 7.8], 2 mM DTT, 2 mM 1,2-diaminocyclohexane-N,N,N′,N′-tetraacetic acid, 10% glycerol, 1% Triton X-100). Cell lysates was centrifuged at 12,000×g for 1 minute and 50 ul supernatant was carefully harvested without disturbing the cell pellet. The cell lysates then mixed with 20 μl Luciferase Assay reagent. Luciferase activity was tested using a luminometer (Berthold detection systems, Sirius, Germany). As a negative control, the DP liposomes alone.\nThe TatC peptide/DNA (pcDNA3-luciferase vector)/LFA liposome complex was prepared as described in Example 3.1. Transfection was carried out according to the manufacturer's recommended protocol (Life Technologies, USA), and was tested for luciferase activity.\nTo deteremine if enhanced transfection efficiency could be attained, a TatC Peptide/DNA/cationic liposomes triple complex were formed by mixing them in different order. […]"}, "[1]": {"system": "293, HT-29, HL-60, MCF-7, A549, NC1-H1299, WI-38VA13, HepG2 and Hep3B cells", "assay": "Luciferase transfection efficiency of triple complex in 9 different cell lines", "type": "cell-based, human", "conditions": "various ratios"}, "kidney of SD rats": {"system": "kidney of SD rats", "assay": "In vivo delivery of LacZ plasmid by retrograde ureteral injection, X-gal staining of kidney sections", "set-up": "species or system rat", "conditions": "TatC:DNA:DP=4:1:4, retrograde injection, male SD rats, compared to DNA/liposome or DNA alone, FIG. 16", "procedure": "To test the transfection efficiency of the peptide/DNA/liposomes triple complex in vivo, the following experiment was performed. Male Sprague-Dawley (SD) rats (Hamamatsu, Shizuoka, Japan) were supplied from SLC and were housed in groups of 6 with free access to standard chow and water. Male SD rats, weighing 200-250 g, were used in these experiments. After anesthesia by the intraperitoneal injection of pentobarbital (5 mg/100 g body weight), the left kidney was exposed via an abdominal midline incision. Rats were subjected to ureteral ligation proximal to the left kidney, which was followed by retrograde injection of the triple complex (TatC: DNA: DP=4:1:4) using a 24 gauge catheter syringe. Kidneys were harvested 24 hours after injection of the triple complex. and embedded in a Tissue-Tek™ OCT compound (Miles, Elkhart, Ill.) under liquid nitrogen. Tissue blocks of the perfusion-fixed kidney with 4% paraformaldehyde were cryosectioned to 10 μm thickness and mounted on Poly-Prep™ slides (Sigma, St. Louise, Mo.). After dissection of individual kidneys, kidney sections were fixed with 0.05% glutaraldehyde in PBS by perfusion for 15 min, and incubated in X-gal solution (1.5 mM potassium ferricyanide, 1.5 mM potassium ferrocyanide, and 1% X-gal) at 37° C. for 4 h. Tissue sections of 4 μm were counterstained with hematoxylin and examined using a microscope at 400 fold magnification."}, "WRT7/P2 cells": {"system": "WRT7/P2 cells", "assay": "Cellular uptake of FITC-labeled oligonucleotide", "type": "cell-based, rat", "conditions": "TatC peptide/DNA/LFA triple complex compared to LFA liposomes alone; FIG. 8", "procedure": "Next, transfection efficiency of nucleic acid by the triple complex was tested for oligonucleotides labeled with FITC at both ends. Oligonucleotides were complexed with the TatC peptide and LFA liposomes and were transfected to a rat monocytic cell line, WRT7/P2. The transfected cells were then assayed for FITC-fluorescence. We observed that cellular uptake of the oligonucleotides with the TatC peptide/DNA/LFA triple complex was much higher than delivered with LFA liposomes alone (FIG. 8). […] Therefore, the TatC peptide delivery system of the present invention may be effectively utilized for efficient delivery into cells regardless of the types of DNA to be delivered."}, "K562 cells": {"system": "K562 cells", "assay": "Luciferase transfection efficiency of triple complex in K562 cells", "type": "cell-based", "conditions": "TatC/DNA(pcDNA3-luc)/DP liposomes, FIG. 13B", "procedure": "In order to test transfection efficiency, the TatC peptide was precomplexed with the pcDNA3-luciferase vector DNA in 50 ul OPTI-MEM medium and was incubated for 5 minutes at room temperature. The DP liposomes was prepared in a 50 ul OPTI-MEM medium and added to the preformed complex of the TatC peptide and pcDNA3-luciferase vector DNA. The ratio of each component in the triple complex of the TatC peptide/DNA/DP liposomes was adjusted to 3:1:5 respectively. The triple complex of TatC peptide/DNA/DP liposomes was incubated for 10 minutes at room temperature and used for transfection into cells. After 5 hr incubation, 300 ul/well of the OPTI-MEM medium containing 20% Fetal Bovine Serum (FBS) was added into each transfection well. Further incubation for 16 hours was carried out before measuring transfection efficiency in luciferase activity using a luciferase assay kit (Promega, USA). To check luciferase activity of the pcDNA3-luciferase vector DNA, the following procedure was adopted. […]\nIn order to test transfection efficiency of the triple complex, TatC peptide and liposomes (DP or LFA) were mixed with plasmid DNA in various ratios. […] Luciferase activity was then measured as described in Example 3.1.\nThe TatC peptide shown in Example 2.1 was modified with RGD amino acid sequence at both N-and C-termini. […] Luciferase activity was measured for each transfected cells as described in Example 3.1. […]"}},
  "data": [
    {"sequence": "RGDRKKRRQRRRPPQCRGD (RGD-TatC-RGD)", "values": [
      {"measurement": "luciferase activity for various peptides", "setting": "HeLa cells", "result": "markedly higher luciferase activity"}
    ]},
    {"sequence": "RKKRRQRRRPPQ (Tat) [Tat peptide containing the NLS motif without any modification, control, reference compound]", "values": [
      {"measurement": "luciferase activity for various peptides", "setting": "HeLa cells", "result": "comparably low"}
    ]},
    {"sequence": "RKKRRQRRRPPQC (TatC)", "values": [
      {"measurement": "transfection efficiency according to mixing order", "setting": "cells; TatC peptide and DNA mixed first, then cationic liposome (LFA), compared with other mixing orders, FIG. 2", "result": "highest"},
      {"measurement": "transfection activity (luciferase)", "setting": "cells; TatC peptide/DNA/LFA liposome complex compared to LFA liposomes only, FIG. 1", "result": "higher transfection activity"},
      {"measurement": "luciferase activity", "setting": "cells; triple complex TatC peptide/DNA/DP liposomes 3:1:5, compared to DP liposomes alone, FIG. 1", "result": "significantly enhances luciferase activity"},
      {"measurement": "luciferase activity for various peptides", "setting": "HeLa cells", "result": "markedly higher luciferase activity"},
      {"measurement": "luciferase activity with or without 10% FBS", "setting": "HeLa cells; TatC/DNA(pcDNA3-luc)/DP liposomes, HeLa, FIG. 13A", "result": "higher in medium containing serum"},
      {"measurement": "luciferase activity", "setting": "[1]; triple complex TatC peptide/DNA/DP, compared to DP liposomes alone, FIG. 6", "result": "remarkably higher luciferase activity"},
      {"measurement": "luciferase activity", "setting": "[1]; triple complex TatC peptide/DNA/LFA, compared to liposomes alone, FIG. 7", "result": "Analogous results"},
      {"measurement": "expression of the β-galactosidase gene in kidney", "setting": "kidney of SD rats", "result": "observed only in the group treated with the complex composed of TatC/DNA/liposomes"},
      {"measurement": "cellular uptake of FITC-labeled oligonucleotides (FITC-fluorescence)", "setting": "WRT7/P2 cells", "result": "much higher"},
      {"measurement": "luciferase activity with or without 10% FBS", "setting": "K562 cells", "result": "higher in medium containing serum"}
    ]},
    {"sequence": "RKKRRQRRRPPQCRGDRGD (TatC-RGD-RGD)", "values": [
      {"measurement": "luciferase activity for various peptides", "setting": "HeLa cells", "result": "markedly higher luciferase activity"}
    ]},
    {"sequence": "RRKRQRKRRPQP (Scrambled Tat(Sc-Tat)) [scrambled Tat peptide with random disturbance of the NLS motif, negative control, reference compound]", "values": [
      {"measurement": "luciferase activity for various peptides", "setting": "HeLa cells", "result": "comparably low"}
    ]}
  ]
}
